{
  "source": "patent US10160747B2",
  "about": "“Compounds and methods for kinase modulation, and indications therefor” (Plexxikon Inc., priority 2016, dated 2018)",
  "key": {"FLT3-D835Y": {"biological_target": "T1, FLT3-D835Y (Homo sapiens, UniProt P36888, D835Y)", "T1 construct": "purchased Invitrogen PV3967", "T1 sequence (P36888 27-993 D835Y)": "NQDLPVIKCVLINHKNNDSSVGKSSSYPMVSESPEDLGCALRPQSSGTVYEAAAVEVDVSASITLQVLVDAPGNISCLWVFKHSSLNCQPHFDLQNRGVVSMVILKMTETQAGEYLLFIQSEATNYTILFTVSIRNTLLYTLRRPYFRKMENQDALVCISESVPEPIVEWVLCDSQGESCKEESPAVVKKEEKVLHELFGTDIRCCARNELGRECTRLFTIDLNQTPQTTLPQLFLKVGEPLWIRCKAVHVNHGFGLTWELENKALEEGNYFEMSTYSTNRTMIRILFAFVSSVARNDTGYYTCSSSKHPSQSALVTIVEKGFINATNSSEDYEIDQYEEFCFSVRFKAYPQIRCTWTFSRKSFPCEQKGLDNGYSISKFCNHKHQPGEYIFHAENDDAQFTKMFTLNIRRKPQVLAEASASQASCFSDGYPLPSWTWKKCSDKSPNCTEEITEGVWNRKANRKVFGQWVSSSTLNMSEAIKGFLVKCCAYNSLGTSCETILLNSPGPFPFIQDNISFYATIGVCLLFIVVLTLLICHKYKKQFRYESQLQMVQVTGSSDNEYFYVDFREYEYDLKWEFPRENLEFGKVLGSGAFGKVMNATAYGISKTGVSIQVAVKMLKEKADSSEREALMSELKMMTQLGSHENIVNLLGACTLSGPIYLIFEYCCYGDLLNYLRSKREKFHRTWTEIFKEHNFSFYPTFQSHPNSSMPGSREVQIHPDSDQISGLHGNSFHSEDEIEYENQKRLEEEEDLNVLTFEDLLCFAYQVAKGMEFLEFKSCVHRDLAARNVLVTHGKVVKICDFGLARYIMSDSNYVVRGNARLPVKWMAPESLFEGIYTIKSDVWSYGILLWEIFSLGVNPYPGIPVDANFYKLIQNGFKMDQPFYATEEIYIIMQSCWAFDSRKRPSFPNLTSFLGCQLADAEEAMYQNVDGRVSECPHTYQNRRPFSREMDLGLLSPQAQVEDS", "test": "FLT3-D835Y recombinant enzyme kinase assay (AlphaScreen)", "type": "biochemical", "details": "8 pt, GMean", "how_it_was_run": "(§1)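 Substrate 30 nM biotin-GG(EEEEY)10EE; ATP 10 μM (FLT3-ITD, FLT3-D835Y) or 100 μM (c-KIT). Detection: AlphaScreen PY20 kit, 10 μg/mL beads, RT 20 + 60 min. Readout 580 nm; IC50.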"}, "FLT3-ITD": {"biological_target": "T2, FLT3-ITD (Homo sapiens, UniProt P36888)", "T2 sequence (P36888 1-993)": "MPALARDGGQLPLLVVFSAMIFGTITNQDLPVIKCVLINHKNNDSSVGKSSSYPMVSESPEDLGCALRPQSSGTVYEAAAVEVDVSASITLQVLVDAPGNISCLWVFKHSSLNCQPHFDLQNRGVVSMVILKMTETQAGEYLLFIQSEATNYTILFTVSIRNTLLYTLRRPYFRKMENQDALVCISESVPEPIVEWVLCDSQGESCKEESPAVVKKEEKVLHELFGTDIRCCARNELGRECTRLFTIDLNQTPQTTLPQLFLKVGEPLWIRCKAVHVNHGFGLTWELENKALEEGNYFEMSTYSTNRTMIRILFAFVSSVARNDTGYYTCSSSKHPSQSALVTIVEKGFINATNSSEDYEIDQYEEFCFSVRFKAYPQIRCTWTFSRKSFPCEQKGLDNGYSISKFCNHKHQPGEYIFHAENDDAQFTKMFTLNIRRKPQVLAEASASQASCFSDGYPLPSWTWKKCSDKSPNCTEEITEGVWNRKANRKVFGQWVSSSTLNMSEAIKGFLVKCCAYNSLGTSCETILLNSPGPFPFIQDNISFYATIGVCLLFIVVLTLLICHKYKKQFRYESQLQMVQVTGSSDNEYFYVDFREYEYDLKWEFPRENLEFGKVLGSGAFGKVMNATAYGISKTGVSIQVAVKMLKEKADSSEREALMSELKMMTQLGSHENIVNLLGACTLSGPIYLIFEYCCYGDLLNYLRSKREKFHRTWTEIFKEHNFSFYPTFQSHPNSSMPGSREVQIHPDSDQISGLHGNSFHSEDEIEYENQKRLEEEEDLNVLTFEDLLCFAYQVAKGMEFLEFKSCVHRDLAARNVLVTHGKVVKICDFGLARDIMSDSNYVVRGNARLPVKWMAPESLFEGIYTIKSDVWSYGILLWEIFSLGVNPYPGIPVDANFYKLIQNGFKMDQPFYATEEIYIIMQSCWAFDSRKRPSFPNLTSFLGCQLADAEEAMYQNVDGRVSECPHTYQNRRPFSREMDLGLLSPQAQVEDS", "test": "FLT3-ITD recombinant enzyme kinase assay (AlphaScreen)", "type": "biochemical", "details": "8 pt; read-out: FLT3_ITD 8 pt: IC50", "how_it_was_run": "as §1"}},
  "data": [
    {"smiles": "COc1ncc(NC(=O)Cc2cc(F)c(-c3cnc4[nH]nc(C)c4c3)cc2F)cc1C(F)(F)F", "note": "[Compound P-0176, 2-[2,5-difluoro-4-(3-methyl-1H-pyrazolo[3,4-b]pyridin-5-yl)phenyl]-N-[6-methoxy-5-(trifluoromethyl)-3-pyridyl]acetamide]", "values": [
      {"measurement": "IC50", "setting": "FLT3-D835Y", "result": "0.0001 to 10", "unit": "µM"},
      {"measurement": "IC50", "setting": "FLT3-ITD", "result": "0.0001 to 10", "unit": "µM"}
    ]},
    {"smiles": "Cc1n[nH]c2ncc(-c3ccc(CC(=O)Nc4cncc(C(F)(F)F)c4)cc3F)cc12", "note": "[Compound P-0177, 2-[3-fluoro-4-(3-methyl-1H-pyrazolo[3,4-b]pyridin-5-yl)phenyl]-N-[5-(trifluoromethyl)-3-pyridyl]acetamide]", "values": [
      {"measurement": "IC50", "setting": "FLT3-D835Y", "result": "0.0001 to 10", "unit": "µM"},
      {"measurement": "IC50", "setting": "FLT3-ITD", "result": "0.0001 to 10", "unit": "µM"}
    ]},
    {"smiles": "COCCn1cc(Nc2ncc(-c3ccc(CC(=O)Nc4cncc(C(F)(F)F)c4)cc3)cn2)cn1", "note": "[Compound P-0178, 2-[4-[2-[[1-(2-methoxyethyl)pyrazol-4-yl]amino]pyrimidin-5-yl]phenyl]-N-[5-(trifluoromethyl)-3-pyridyl]acetamide]", "values": [
      {"measurement": "IC50", "setting": "FLT3-D835Y", "result": "0.0001 to 10", "unit": "µM"},
      {"measurement": "IC50", "setting": "FLT3-ITD", "result": "0.0001 to 10", "unit": "µM"}
    ]},
    {"smiles": "COCCn1cc(Nc2ncc(-c3ccc(CC(=O)Nc4cnc(C)c(C(F)(F)F)c4)cc3)cn2)cn1", "note": "[Compound P-0179, 2-[4-[2-[[1-(2-methoxyethyl)pyrazol-4-yl]amino]pyrimidin-5-yl]phenyl]-N-[6-methyl-5-(trifluoromethyl)-3-pyridyl]acetamide]", "values": [
      {"measurement": "IC50", "setting": "FLT3-D835Y", "result": "0.0001 to 10", "unit": "µM"},
      {"measurement": "IC50", "setting": "FLT3-ITD", "result": "0.0001 to 10", "unit": "µM"}
    ]},
    {"smiles": "COc1nn(C[C@H](C)O)cc1Nc1ncc(-c2ccc(CC(=O)Nc3cnc(C)c(C(F)(F)F)c3)cc2)cn1", "note": "[Compound P-0180, 2-[4-[2-[[1-[(2S)-2-hydroxypropyl]-3-methoxy-pyrazol-4-yl]amino]pyrimidin-5-yl]phenyl]-N-[6-methyl-5-(trifluoromethyl)-3-pyridyl]acetamide]", "values": [
      {"measurement": "IC50", "setting": "FLT3-D835Y", "result": "0.0001 to 10", "unit": "µM"},
      {"measurement": "IC50", "setting": "FLT3-ITD", "result": "0.0001 to 10", "unit": "µM"}
    ]},
    {"smiles": "O=C(Cc1ccc(-c2cnc3[nH]c(-c4ccnc(N5CCOCC5)c4)cc3c2)cn1)Nc1ccnc(C(F)(F)F)c1", "note": "[Compound P-0181, 2-[5-[2-(2-morpholino-4-pyridyl)-1H-pyrrolo[2,3-b]pyridin-5-yl]-2-pyridyl]-N-[2-(trifluoromethyl)-4-pyridyl]acetamide]", "values": [
      {"measurement": "IC50", "setting": "FLT3-D835Y", "result": "0.0001 to 10", "unit": "µM"},
      {"measurement": "IC50", "setting": "FLT3-ITD", "result": "0.0001 to 10", "unit": "µM"}
    ]},
    {"smiles": "N#Cc1cc(-c2cc3cc(-c4ccc(CC(=O)Nc5ccnc(C(F)(F)F)c5)nc4)cnc3[nH]2)ccn1", "note": "[Compound P-0182, 2-[5-[2-(2-cyano-4-pyridyl)-1H-pyrrolo[2,3-b]pyridin-5-yl]-2-pyridyl]-N-[2-(trifluoromethyl)-4-pyridyl]acetamide]", "values": [
      {"measurement": "IC50", "setting": "FLT3-D835Y", "result": "0.0001 to 10", "unit": "µM"},
      {"measurement": "IC50", "setting": "FLT3-ITD", "result": "0.0001 to 10", "unit": "µM"}
    ]},
    {"smiles": "O=C(Cc1ccc(-c2cnc3[nH]c(-c4ccc(N5CCOCC5)nc4)cc3c2)cn1)Nc1ccnc(C(F)(F)F)c1", "note": "[Compound P-0183, 2-[5-[2-(6-morpholino-3-pyridyl)-1H-pyrrolo[2,3-b]pyridin-5-yl]-2-pyridyl]-N-[2-(trifluoromethyl)-4-pyridyl]acetamide]", "values": [
      {"measurement": "IC50", "setting": "FLT3-D835Y", "result": "0.0001 to 10", "unit": "µM"},
      {"measurement": "IC50", "setting": "FLT3-ITD", "result": "0.0001 to 10", "unit": "µM"}
    ]},
    {"smiles": "O=C(Cc1ccc(-c2cnc3[nH]c(-c4ccc(N5CCOCC5)nc4)cc3c2)c(F)c1)Nc1cc(C(F)(F)F)ccn1", "note": "[Compound P-0192, 2-[3-fluoro-4-[2-(6-morpholino-3-pyridyl)-1H-pyrrolo[2,3-b]pyridin-5-yl]phenyl]-N-[4-(trifluoromethyl)-2-pyridyl]acetamide]", "values": [
      {"measurement": "IC50", "setting": "FLT3-D835Y", "result": "0.0001 to 10", "unit": "µM"},
      {"measurement": "IC50", "setting": "FLT3-ITD", "result": "0.0001 to 10", "unit": "µM"}
    ]},
    {"smiles": "N#Cc1cc(-c2cc3cc(-c4ccc(CC(=O)Nc5cc(C(F)(F)F)ccn5)cc4F)cnc3[nH]2)ccn1", "note": "[Compound P-0194, 2-[4-[2-(2-cyano-4-pyridyl)-1H-pyrrolo[2,3-b]pyridin-5-yl]-3-fluoro-phenyl]-N-[4-(trifluoromethyl)-2-pyridyl]acetamide]", "values": [
      {"measurement": "IC50", "setting": "FLT3-D835Y", "result": "0.0001 to 10", "unit": "µM"},
      {"measurement": "IC50", "setting": "FLT3-ITD", "result": "0.0001 to 10", "unit": "µM"}
    ]},
    {"smiles": "N#Cc1ccc(-c2cc3cc(-c4ccc(CC(=O)Nc5cncc(C(F)(F)F)c5)cc4F)cnc3[nH]2)cn1", "note": "[Compound P-0195, 2-[4-[2-(6-cyano-3-pyridyl)-1H-pyrrolo[2,3-b]pyridin-5-yl]-3-fluoro-phenyl]-N-[5-(trifluoromethyl)-3-pyridyl]acetamide]", "values": [
      {"measurement": "IC50", "setting": "FLT3-D835Y", "result": "0.0001 to 10", "unit": "µM"},
      {"measurement": "IC50", "setting": "FLT3-ITD", "result": "0.0001 to 10", "unit": "µM"}
    ]}
  ]
}
